Data reported in patent US9668967B2, “Lipid formulations comprising a thiolated antioxidant” (CAMURUS AB, priority 2008, dated 2017).

Key:
[1] = Exploratory stability study of glucagon lipid formulations, 25° C./60% RH for 7 days (NP HPLC); type: physicochemical; settings: for assayed GLU content as % of initial (time zero) GLU content (FIG. 3): antioxidant 0.3 wt % (BHT 0.1 wt %), compared with antioxidant-free control
Protocol: To prevent breakdown of glucagon resulting from oxidation of the methionine residue (giving Met(O)27glucagon), an antioxidant may be included in the compositions of the present invention. To establish the most suitable antioxidant, various common and less common antioxidants were tested in the peptide/lipid system of the present invention.
Note that the antioxidant content in the respective formulations, except for the reference formulations (#229 and #234), was 0.3 wt % for tocopherol (α-TOC), acsorbyl palmitate (AscPalm) and mono-thioglycerol (MTG) and 0.1 wt % for butyl hydroxytoluene (BHT). Samples containing MTG were #233 and 235.
In FIG. 3, the assayed GLU content after storage at 25° C./60% RH for 7 days is plotted as the % of initial (time zero) GLU content.
Because the assay is based on a normal phase (NP) HPLC column, degradation products with RR<1 are more hydrophobic compared with GLU whereas more hydrophilic degradation products give RR>1.

[2] = Hydrogen peroxide stress test of buprenorphine lipid formulations (HPLC); type: physicochemical
Protocol: Lipid formulations of BUP also containing antioxidant were prepared in the following way: First, a liquid lipid stock solution of SPC/GDO/EtOH/antioxidant (or a reference stock solution without antioxidant) in the required proportions were prepared by weighing of all components into glass vials followed by mixing by end-over-end rotation for about 8 h or until completely homogenous liquids were obtained. Thereafter, BUP (powder) was added to achieve a nominal concentration of 7.9 wt % in all cases. The antioxidants were added in an amount corresponding to common previous use in pharmaceutical products.
The following stress test was performed to evaluate the effect of the four different antioxidants (Table 1): Oxidative degradation was induced by adding 20 μL, H2O2 (30%)/mL formulation followed by equilibration of the formulations for 48 hours at RT (dark). Analysis of BUP and any oxidation degradation product (DP) in the formulations was performed by HPLC (reversed phase column) with UV detection at 288 nm.
The protective effect of different MTG concentrations was assessed by performing a stress test according to Example 1. […] The formulations were thereafter analysed by HPLC as described in Example 1 and the relative area % of the main oxidation degradation product (DP) peak (relative retention RR=1.053) was determined.

[3] = storage at 25° C./60% RH for 7 days

SMILES | assayed GLU content as % of initial (time zero) GLU content (FIG. 3) [1, 3] | suppressing the oxidative degradation of glucagon ([1]; compared with other lipid soluble antioxidants) | formation of Met(O)27glucagon (degradation products with RR>1, % Total Area, FIG. 4) [1, 3] | protecting BUP from oxidation degradation in the lipid formulation, compared with reference formulation ([2]; H2O2 treated formulations, Table 2) | protective effect of different MTG concentrations on main oxidation DP (FIG. 1) ([2]; MTG 0-1.0 wt % in BUP/SPC/GDO/EtOH=7.9/41.1/41.1/10.0 wt %, H2O2, 48 hours at RT (dark))
CCCCCCCCCCCCCCCC(=O)OC[C@H](O)[C@H]1OC(=O)C(O)=C1O [AscPalm, acsorbyl palmitate, reference compound] | degrading of glucagon | – | – | – | –
OCC(O)CS (stereo not drawn) [MTG, Mono-thioglycerol] | best oxidation protection | more efficient than other lipid soluble antioxidants | most efficient | clearly superior | significant protective effect
